Entries after “also recorded” stand apart in the source; their conditions may differ.
What was measured:
[1] = tested on: human ovarian adenocartcinoma IGROV/ADR; experiment: Death of adriamycine resistant IGROV/ADR cells by daunomycin with recombinant HGH; assay type: cell-based
From the text: To test the possibility of using the object of the present invention on non-lymphoid tumors, the inventors have used HGH to try to invert the “adriamycine resistant” phenotype of cells isolated from a human ovarian adenocartcinoma IGROV/ADR (Bénard J et coll., 1985, Cancer Res, 45:4970-4979).
FIG. 5: Effect of growth hormone on the apoptosis of the IGROV/ADR line, induced by daunomycin; the percentage of dead cells (IP+) is indicated on the ordinate, and different columns corresponding to the different concentrations of HGH used (0, 5, 50, 500, 1000 ng/ml); the concentrations of daunomycin are indicated on the abscissa in μM.

[2] = tested on: human renal carcinoma cells (RCC) HIEG; experiment: Number of living RCC cells 48 h after daunomycin, flow cytometry; assay type: cell-based
Procedure: Erythropoietin (EPO), another molecule than HGH belonging to the same family of cytokines of class I, has been tested on human renal carcinoma cells (RCC) HIEG.
4.10^4 RCC cells have been transfected in a transitory manner with the help of an Effecten^R kit, or with 3 μg of plasmid carrying the gene encoding for EPO (RCC-EPO cells), or with 3 μg of a plasmid coding for the resistance to neomycin (RCC-Neo cells) as the negative control. After 48 hours, the RCC were combined with daunomycin at two different concentrations: 0.3 and 0.6 μM. The number of surviving cells was measured 48 hours later by flow cytometry (FIG. 6).
FIG. 6: Effect of erythropoietin on the apoptosis of the human renal carcinoma line HIEG, induced by daunomycin: for each of the experiments 1 and 2, the number of living cells is indicated on the ordinate, the white columns correspond to the RCC-Neo cells, the black columns correspond to the RCC-EPO cells; the concentrations of daunomycin are indicated on the abscissa in μM.

[3] = tested on: U937-HGH and U937-Neo cells; experiment: Propidium iodide incorporation (flow cytometry) after 48 h culture with recombinant -TNF; assay type: cell-based, human; settings: U937-HGH line versus U937 / U937-Neo control
From the text: A selection gene (neomycin resistant, Neo^R) and the gene encoding for human growth hormone (HGH) have been co-transfected in the human promyeloid leukemic line U937. By comparing the transfected line U937-HGH (which produces in a constituent fashion HGH at physiologic doses), either to the parent line U937, or to a line transfected with Neo^R alone, there are observed by different methodological approaches, that the U937-HGH line dies more under the effect of the tumor necrosis factor (-TNF). This cytokine secreted by different types of immune cells has in an anti-tumor activity (Harakana, K et al., 1984, Int J Cancer, 34:263-267) and is capable of promoting the activation of NF-κB (Baeuerle P A, Henkel T, 1994, Ann Rev Immunol, 12:141-179).
The U937-HGH cells and the U937-Neo control cells have been cultured for 48 hours in the presence of increasing concentrations of recombinant -TNF. As a result of this culture, the washed cells have been incubated in the presence of propidium iodide which is incorporated in the DNA of the dead cells. These cells are analyzed by flowing cytometry. […]

NF-κB [4] = experiment: Gel delay analysis of nuclear extracts for NF-κB after -TNF stimulation; assay type: cell-based, human; settings: U937-HGH cells versus U937 control cells, -TNF or -TNF and cycloheximide
From the text: On this gel were deposited nuclear extracts from the U937-HGH and U937 cells (the mother line having served for obtaining the U937-HGH lines) subjected to different inductors including -TNF or -TNF and cycloheximide (inhibitor of protein synthesis).
FIG. 2: The effect of growth hormone on the translocation of NF-κB; column 1 corresponds to the control cells U937, column 2 corresponds to the U937 cells treated with -TNF+cycloheximide, column 3 corresponds to the U937 cells treated with -TNF, column 4 corresponds to the U937 cells treated with -TNF+a mutant NF-κB probe, column 5 corresponds to the U937 cells treated with -TNF +a homologous NF-κB probe, column 6 corresponds to the control cells U937-HGH, column 7 corresponds to the U937-HGH cells treated with -TNF+cycloheximide, column 8 corresponds to the U937-HGH cells treated with -TNF; the presence of NF-κB is indicated by an arrow.

NF-κB [5] = experiment: NF-κB-driven CAT reporter ELISA after -TNF stimulation; assay type: cell-based, human; settings: U937-HGH versus U937-Neo cells
Procedure: The cells are transfected by electroporation then incubated with -TNF. At the end of culturing, the cells are lysated and the activated CAT is measured by an commercial ELISA (Boehringer-Mannheim), according to the directions of the supplier.
FIG. 3: Effect of growth hormone on the reporter activity CAT; the percentage of variation of CAT activity is indicated on the abscissa; the two left columns show the two experiments carried out on U937-Neo cells, and the two right columns represent the two independent experiments carried out on U937-HGH cells.

[6] = tested on: U937-HGH and U937-Neo cells; experiment: Death mediated by daunomycin in U937-HGH versus control line (IP+ cells); assay type: cell-based, human
From the text: FIG. 4: Effect of growth hormone on apoptosis induced by daunomycin; the percentage of the dead cells (IP+) is indicated on the ordinate, the white columns corresponding to the cells of the strain U937-Neo, the black columns corresponding to the cells of the strain U937-HGH; the indicated percentages show the increase of mortality of the cells; the concentrations of daunomycin are indicated on the abscissa in μM.

human monocytes = experiment: Death of human monocytes after engagement of APO1/CD95/Fas; assay type: cell-based
NF-κB [7] = settings: human monocytes, exogenous recombinant HGH; cited from earlier work

Row | Molecule | toxic effect of daunomycin on IGROV/ADR cells ([1]; HGH 0 ng/ml) | numbers of living cells ([2]; Experiment 1, RCC-EPO cells, daunomycin 0.3 μM) | numbers of living cells ([2]; Experiment 1, RCC-EPO cells, daunomycin 0.6 μM) | numbers of living cells ([2]; Experiment 1, RCC-Neo cells, daunomycin 0.3 μM) | numbers of living cells ([2]; Experiment 1, RCC-Neo cells, daunomycin 0.6 μM) | numbers of living cells ([2]; Experiment 2, RCC-EPO cells, daunomycin 0.3 μM) | numbers of living cells ([2]; Experiment 2, RCC-EPO cells, daunomycin 0.6 μM) | numbers of living cells ([2]; Experiment 2, RCC-Neo cells, daunomycin 0.3 μM) | numbers of living cells ([2]; Experiment 2, RCC-Neo cells, daunomycin 0.6 μM) | effect of HGH on death mediated by -TNF [3] | presence of NF-κB in the nuclei (NF-κB [4]) | CAT activity, reflected by the presence of NF-κB (NF-κB [5]) | sensitivity to death mediated by daunomycin [6] | dose of HGH giving maximum effect ([1]; lowest dose of HGH used, sensitisation to daunomycin) [ng/mL] | effect of recombinant HGH on sensitivity of IGROV/ADR cells to daunomycin ([1]; recombinant HGH (Saizen) added to culture) | death mediated through the molecule Fas (human monocytes) | synthesis of proto-oncogene Bc1-2 (human monocytes) | activation of NF-κB after stimulation by LPS (NF-κB [7])
1 | COc1cccc2c1C(=O)c1c(O)c3c(c(O)c1C2=O)C[C@@](O)(C(C)=O)C[C@@H]3O[C@H]1C[C@H](N)[C@H](O)[C@H](C)O1 [daunomycin] | insensitive to the toxic effect | 3487 | 8551 | 11382 | 10179 | 2693 | 4739 | 8891 | 7001 |  |  |  |  |  |  |  |  | 
2 | HGH: human growth hormone (SEQ ID NO 2); produced by transfected U937-HGH line or recombinant exogenous HGH (Saizen, Serono) (protein, listed as Homo sapiens) MATGSRTSLLLAFGLLCLPWLQEGSAFPTIPLSRLFDNASLRAHRLHQLAFDTYQEFNPQTSLCFSESIPTPSNREETQQKSNLELLRISLLLIQSWLEPVQFLRSVFANSLVYGASDSNVYDLLKDLEEGIQTLMGRLEDGSPRTGQIFKQTYSKFDTNSHNDDALLKNYGLLYCFRKDMDKVETFLRIVQCRSVEGSCGF |  |  |  |  |  |  |  |  |  | accelerates the death of these cells; also recorded: increases their susceptibility to the induction of death | decreased relative to the control cells | decreased in the U937-HGH cells relative to the control cells | more sensitive than the control line | 5 | renders these cells sensitive to daunomycin | decreases the death | increasing the synthesis | inhibits the activation of NF-κB
